Reference: the supplement of paper PMC4380931
± gives the standard deviation of the averaged measurements.

Legend:
C32 [1] = test: apoptotic fraction of cells (caspase-3 NucView488 positive); higher = more apoptosis
Experimental: (§1)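 BRAF V600E/D melanoma cell lines were seeded in 96-well plates, treated in 4 replicates with seven doses (3.16 nM to 3.16 uM) of RAF/MEK inhibitors for 24, 48 or 72 h, and stained with Hoechst 33342 (nuclei) and DEVD-NucView488 caspase-3 substrate. Plates were imaged on an Operetta. Relative viability is the cell count normalised to a DMSO-treated control; apoptosis fraction is the fraction of NucView488-positive nuclei.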

COLO858 = test: as above
Experimental: as §1

RVH421 = test: as above
Experimental: as §1

C32 [2] = test: relative viability (cell count relative to DMSO-treated control) (fraction of DMSO control); higher = more viable cells / less drug effect
Experimental: as §1

LOXIMVI = test: as above; settings: 24 h
Experimental: as §1

WM115 = test: as above
Experimental: as §1

WM1552C = test: as above
Experimental: as §1

CCCS(=O)(=O)Nc1ccc(F)c(C(=O)c2c[nH]c3ncc(-c4ccc(Cl)cc4)cc23)c1F [Vemurafenib]
Settings	apoptotic fraction of cells, C32 [1]	apoptotic fraction of cells, COLO858	apoptotic fraction of cells, RVH421	relative viability, C32 [2]	relative viability, WM115	relative viability, WM1552C
24 h, 0.00316 µM	0.0798 ± 0.017	0.0468 ± 0.0095	0.04937 ± 0.00025	0.987 ± 0.076	1.17 ± 0.16	0.92 ± 0.085
24 h, 0.01 µM	0.139 ± 0.021	0.0448 ± 0.003	0.0545 ± 0.003	0.995 ± 0.068	1.2 ± 0.23	0.969 ± 0.039
24 h, 0.0316 µM	0.166 ± 0.026	0.0467 ± 0.0044	0.0463 ± 0.0034	1.03 ± 0.048	1.22 ± 0.33	0.912 ± 0.045
24 h, 0.1 µM	0.186 ± 0.0053	0.0418 ± 0.0056	0.0489 ± 0.0049	0.985 ± 0.045	1.18 ± 0.35	1.06 ± 0.068
24 h, 0.316 µM	0.202 ± 0.011	0.0538 ± 0.0067	0.0609 ± 0.014	0.997 ± 0.068	1.17 ± 0.39	1.03 ± 0.026
24 h, 1 µM	0.17 ± 0.0081	0.0998 ± 0.019	0.0547 ± 0.012	0.927 ± 0.1	1.22 ± 0.32	0.987 ± 0.024
24 h, 3.16 µM	0.309 ± 0.019	0.151 ± 0.021	0.0664 ± 0.0031	0.637 ± 0.026	1.24 ± 0.29	0.875 ± 0.053
48 h, 0.00316 µM	0.11 ± 0.02	0.0487 ± 0.0082	0.0497 ± 0.0037	1.07 ± 0.13	1.04 ± 0.48	0.9247 ± 0.008
48 h, 0.01 µM	0.173 ± 0.021	0.0502 ± 0.0055	0.0508 ± 0.0079	0.901 ± 0.19	1.24 ± 0.51	1 ± 0.044
48 h, 0.0316 µM	0.186 ± 0.039	0.048 ± 0.0033	0.0538 ± 0.013	0.891 ± 0.2	1.24 ± 0.32	1.01 ± 0.061
48 h, 0.1 µM	0.127 ± 0.024	0.0491 ± 0.0029	0.0604 ± 0.018	0.96 ± 0.13	1.45 ± 0.31	1 ± 0.044
48 h, 0.316 µM	0.0971 ± 0.019	0.0797 ± 0.014	0.0622 ± 0.011	0.988 ± 0.12	1.73 ± 0.29	1.06 ± 0.075
48 h, 1 µM	0.407 ± 0.048	0.194 ± 0.045	0.0737 ± 0.0055	0.551 ± 0.094	1.31 ± 0.33	0.886 ± 0.012
48 h, 3.16 µM	0.862 ± 0.018	0.453 ± 0.066	0.0864 ± 0.027	0.102 ± 0.018	0.884 ± 0.34	0.719 ± 0.041
72 h, 0.00316 µM	0.0761 ± 0.013	0.0879 ± 0.0045	0.0342 ± 0.0021	1.04 ± 0.13	0.953 ± 0.064	1.06 ± 0.1
72 h, 0.01 µM	0.0907 ± 0.005	0.0831 ± 0.013	0.0343 ± 0.0035	1.07 ± 0.077	1.04 ± 0.038	1.14 ± 0.079
72 h, 0.0316 µM	0.0843 ± 0.009	0.0746 ± 0.0059	0.0341 ± 0.0015	1.02 ± 0.036	1.05 ± 0.024	1.17 ± 0.12
72 h, 0.1 µM	0.061 ± 0.011	0.0587 ± 0.0014	0.0335 ± 0.0019	0.875 ± 0.067	1.07 ± 0.028	1.2 ± 0.13
72 h, 0.316 µM	0.114 ± 0.015	0.0687 ± 0.0033	0.0444 ± 0.00098	0.684 ± 0.05	0.855 ± 0.041	1.06 ± 0.1
72 h, 1 µM	0.658 ± 0.054	0.25 ± 0.014	0.0453 ± 0.0044	0.162 ± 0.035	0.571 ± 0.037	0.671 ± 0.058
72 h, 3.16 µM	0.928 ± 0.032	0.723 ± 0.025	0.0682 ± 0.016	0.0274 ± 0.01	0.27 ± 0.049	0.42 ± 0.039

LOXIMVI
Settings	relative viability
0.00316 µM	0.969 ± 0.058
0.01 µM	0.94 ± 0.22
0.0316 µM	0.959 ± 0.17
0.1 µM	0.96 ± 0.13
0.316 µM	0.953 ± 0.11
1 µM	0.95 ± 0.11
3.16 µM	0.805 ± 0.1

Cn1cnc2c(F)c(Nc3ccc(Br)cc3Cl)c(C(=O)NOCCO)cc21 [Selumetinib]
Settings	apoptotic fraction of cells, C32 [1]	apoptotic fraction of cells, COLO858	apoptotic fraction of cells, RVH421	relative viability, C32 [2]	relative viability, WM115	relative viability, WM1552C
24 h, 0.00316 µM	0.0878 ± 0.021	0.0501 ± 0.004	0.0531 ± 0.0079	1.02 ± 0.16	1.06 ± 0.07	0.97 ± 0.012
24 h, 0.01 µM	0.113 ± 0.0042	0.0441 ± 0.0024	0.0501 ± 0.0051	1.02 ± 0.11	1.27 ± 0.17	0.993 ± 0.024
24 h, 0.0316 µM	0.144 ± 0.015	0.0433 ± 0.0027	0.0442 ± 0.004	1 ± 0.086	1.36 ± 0.32	1.0822 ± 0.00085
24 h, 0.1 µM	0.213 ± 0.02	0.0474 ± 0.0037	0.0496 ± 0.0021	0.891 ± 0.066	1.27 ± 0.36	1.07 ± 0.0091
24 h, 0.316 µM	0.215 ± 0.029	0.083 ± 0.0066	0.0515 ± 0.00052	0.938 ± 0.046	1.46 ± 0.29	1.03 ± 0.016
24 h, 1 µM	0.236 ± 0.0091	0.137 ± 0.011	0.0523 ± 0.0068	0.861 ± 0.058	0.89 ± 0.19	1.06 ± 0.022
24 h, 3.16 µM	0.272 ± 0.052	0.149 ± 0.012	0.0612 ± 0.001	0.811 ± 0.094	0.728 ± 0.22	0.947 ± 0.033
48 h, 0.00316 µM	0.0773 ± 0.01	0.0496 ± 0.0044	0.0489 ± 0.0032	1.24 ± 0.16	1.02 ± 0.51	0.947 ± 0.041
48 h, 0.01 µM	0.0963 ± 0.028	0.049 ± 0.0057	0.0601 ± 0.016	1.09 ± 0.32	1.39 ± 0.54	0.992 ± 0.035
48 h, 0.0316 µM	0.0636 ± 0.012	0.0473 ± 0.0057	0.0622 ± 0.013	1.15 ± 0.15	1.37 ± 0.42	0.956 ± 0.025
48 h, 0.1 µM	0.107 ± 0.0058	0.0649 ± 0.01	0.0642 ± 0.013	0.959 ± 0.092	1.48 ± 0.43	0.867 ± 0.032
48 h, 0.316 µM	0.262 ± 0.033	0.155 ± 0.0036	0.0635 ± 0.0081	0.71 ± 0.12	1.24 ± 0.34	0.761 ± 0.04
48 h, 1 µM	0.598 ± 0.026	0.232 ± 0.045	0.0671 ± 0.013	0.322 ± 0.055	0.823 ± 0.024	0.676 ± 0.024
48 h, 3.16 µM	0.83 ± 0.014	0.313 ± 0.053	0.0755 ± 0.015	0.127 ± 0.016	0.592 ± 0.11	0.677 ± 0.034
72 h, 0.00316 µM	0.103 ± 0.028	0.0958 ± 0.01	0.0328 ± 0.0031	0.891 ± 0.18	1.03 ± 0.042	0.862 ± 0.19
72 h, 0.01 µM	0.0822 ± 0.016	0.0753 ± 0.0071	0.0321 ± 0.0041	0.998 ± 0.1	1.07 ± 0.091	0.918 ± 0.12
72 h, 0.0316 µM	0.0406 ± 0.00086	0.0678 ± 0.0046	0.0318 ± 0.0031	0.952 ± 0.1	0.918 ± 0.056	0.806 ± 0.092
72 h, 0.1 µM	0.108 ± 0.018	0.0769 ± 0.011	0.0418 ± 0.0081	0.698 ± 0.027	0.751 ± 0.068	0.635 ± 0.084
72 h, 0.316 µM	0.403 ± 0.046	0.134 ± 0.025	0.0438 ± 0.0051	0.347 ± 0.059	0.587 ± 0.059	0.526 ± 0.023
72 h, 1 µM	0.759 ± 0.05	0.259 ± 0.038	0.0599 ± 0.0044	0.112 ± 0.033	0.409 ± 0.029	0.44 ± 0.038
72 h, 3.16 µM	0.862 ± 0.035	0.383 ± 0.037	0.0977 ± 0.015	0.0615 ± 0.021	0.287 ± 0.035	0.411 ± 0.057

LOXIMVI
Settings	relative viability
0.00316 µM	0.937 ± 0.096
0.01 µM	0.976 ± 0.2
0.0316 µM	1.02 ± 0.11
0.1 µM	1.07 ± 0.12
0.316 µM	0.98 ± 0.16
1 µM	1 ± 0.14
3.16 µM	0.913 ± 0.095
